Drawing on publication PMC9896412, “The role of invariant surface glycoprotein 75 in xenobiotic acquisition by African trypanosomes” (Microbial Cell, 2023), this text covers Kd for 2 molecules.

Assay [1] addresses T1, invariant surface glycoprotein 75 (ISG75) (Trypanosoma brucei, UniProt Q1WK95). Description: biochemical.
Assay [2] deals with T1, invariant surface glycoprotein 75 (ISG75). The experiment in a line: ITC (tag-free protein from S2 cells). The class given is binding.

The molecule `Cc1ccc(C(=O)Nc2ccc(S(=O)(=O)O)c3cc(S(=O)(=O)O)cc(S(=O)(=O)O)c23)cc1NC(=O)c1cccc(NC(=O)Nc2cccc(C(=O)Nc3cc(C(=O)Nc4ccc(S(=O)(=O)O)c5cc(S(=O)(=O)O)cc(S(=O)(=O)O)c45)ccc3C)c2)c1` [suramin] registered a Kd in assay [1] of 3200 nM.

`Cc1cc(-c2ccc(/N=N/c3c(S(=O)(=O)O)cc4cc(S(=O)(=O)O)cc(N)c4c3O)c(C)c2)ccc1/N=N/c1c(S(=O)(=O)O)cc2cc(S(=O)(=O)O)cc(N)c2c1O` [trypan blue] registered a Kd in assay [2] of 600 nM.

As a reminder, the Kd is the constant that tells how readily two partners part at equilibrium. Read a high Kd as weaker binding.
